Counter-ions that a name gives are not always drawn.
Columns and labels:
[1] = In situ salt screening, aqueous in situ solubility; type: physicochemical; conditions: crystalline salts
From the text: In general, as aqueous solubility increases, the potential for absorption of the drug in the gut (and ultimate bioavailability) increases as well. Higher bioavailability can result in lower variability in clinical exposure and thus give the physician an advantage in correctly dosing-the patient within the therapeutic window. Using the aqueous in situ solubility as a guide, and the robustness of the same crystalline form isolated via automation, the crystalline mesylate, lactate, tartrate and phosphate salts of GS II were identified as candidates for further evaluation. Separately, the crystalline acetate salt of GS II was identified and also further characterized.

[2] = system: estrogen-induced response (uterine weight/body weight ratio) in female Sprague Dawley (SD) rats; assay: 3-Day Rat Uterine Antagonist; type: in vivo; conditions: 72 h, oral, 3 days, with EE 0.1 mg/kg, two assays, same value on both occasions, read-out: ED50 (inhibition of estrogen-induced uterine weight response)
Method: 3-Day Rat Uterine Antagonist
Female Sprague Dawley (SD) rats, 6 per group and 19 to 21 days of age, are orally treated with ethinyl estradiol (EE; 0.1 mg/kg) and 10, 1, 0.1, or 0.01 mg/kg test compound for 3 days. Test compound is dissolved in 20% w/v β-hydroxycyclodextrin in water and administered by oral gavage in a volume of 0.2 mL daily (15 minutes prior to the EE gavage). Groups of 6 rats are also given vehicle as a negative control and EE alone as a positive control. The animals are fasted overnight following the final dose. On the following morning, the animals are weighed and then euthanized (by carbon dioxide asphyxiation) and the uteri are rapidly collected (via a midline ventral incision), stripped of adipose tissue, removed luminal fluid by blotting onto absorbant paper, and weighed.
Uterine weight/body weight ratios (UWR) are calculated for each animal. The percentage inhibition of the estrogen-induced response is then calculated by the following formula: percent inhibition=100×(UWREE−UWRtest compound/UWREE−UWRcontrol). ED50 values are derived from a semi-log regression analysis of the linear aspect of the dose response curve.

[3] = system: ovariectomized SD female rats (uterine wet weight, BMC, BMD); assay: 8-Week Mature OVX Rat Uterine and Bone Effects; type: in vivo
Method: 8-Week Mature OVX Rat Uterine and Bone Effects
Virgin 6-month-old, SD female rats (Harlan, Ind.) weighing about 270 g are randomized to treatment groups and bilateral ovariectomies are performed using isoflurane anesthesia. Treatment is initiated 3 days after ovariectomy. Groups are orally dosed each day for 8 weeks with GS II mesylate in a vehicle of 20% hydroxypropyl-β-cyclodextrin (Aldrich Chemical Co., Milwaukee, Wis.). Vertebrae and femora are excised at necropsy and the mid-transverse section of the lumbar vertebra L-4 and distal femur metaphysis is scanned in 50% ethanol/saline, using quantitative computed tomography (QCT) (Research M, Norland/Stratec, Pt. Atkinson, Wis.). Cross-sectional area (X-Area), bone mineral content (BMC, mg), and volumetric BMD (vBMD, mg/cm^3) are quantitated, using voxel dimensions of 148×148×500 μm as previously described (Sato M., Bone, 17:157S-162S, 1995). Bone measurements are carried out by computed tomography (CT) scans on the distal femur metaphysis (cancelous bone measurement) and the […] lumbar vertebrae (Sato, 1995 and Sato, et al., J. Med. Chem., 42:1-24, 1999).

[4] = molecular target: endogenous ER receptors in Ishikawa human endometrial tumor cells (Homo sapiens, UniProt P03372); assay: Ishikawa Cell Proliferation Assay (alkaline phosphatase endpoint), agonist and antagonist mode; type: cell-based; conditions: read-out: agonist response (percentage efficacy versus tamoxifen)
Method: Ishikawa Cell Proliferation Assay:
This assay measures cell proliferation in both an agonist mode in the presence of a salt of the present invention alone, and in an antagonist mode in which the ability of a salt of the present invention to block estradiol stimulation of growth is measured. This assay utilizes Ishikawa human endometrial tumor cells and measures agonist and antagonist effects on endogenous ER receptors via an alkaline phosphatase endpoint (Littlefield et al., Endocrinology, 127:2757-2762, 1990). Alkaline phosphatase activity is measured as an endpoint for relative estrogenic stimuli in both an agonist mode and antagonist mode, where the ability of a test compound to block estradiol stimulatory activity is measured (Bramlett, K S, Burris, J., Steroid Biochem. Molec. Biol., 86:27-34, 2003). […]
The plates are dried for 5 minutes and frozen at −70° C. for at least 1 hour. […] After a twenty minute incubation, plates are read on a spectrophotometer at 405 nm. […] For the agonist mode, a percentage efficacy for the test compound is calculated versus the response to 100 nM tamoxifen alkaline phosphatase stimulation as: 100×(test compound-control)/(tamoxifen-control). For the antagonist mode, a percentage efficacy for the test compound is calculated versus E2 (1 nM) alone as: 100×(E2-test compound)/(E2-control).

[5] = Moisture adsorption / hygroscopicity; type: physicochemical
[6] = Salt forms administered to monkeys, blood levels of GS II and its conjugates; type: in vivo; conditions: compared among crystalline acetate, mesylate, lactate and phosphate salts, methanesulfonate
Method: Four of these salts (the crystalline acetate, mesylate, lactate and phosphate salts of GS II) were administered to monkeys and blood levels of GS II and its conjugates were measured. […] Some additional physical properties of crystalline non-solvated GS II mesylate are disclosed below in Table 1.

[7] = Thermogravimetric analysis (volatiles / weight loss); type: physicochemical; conditions: 25 to 216° C.
[8] = dose as low as 0.01 mg/kg, 8 weeks (distal femur metaphysis)

endogenous ER receptors in Ishikawa human endometrial tumor cells, sequence (P03372 whole entry): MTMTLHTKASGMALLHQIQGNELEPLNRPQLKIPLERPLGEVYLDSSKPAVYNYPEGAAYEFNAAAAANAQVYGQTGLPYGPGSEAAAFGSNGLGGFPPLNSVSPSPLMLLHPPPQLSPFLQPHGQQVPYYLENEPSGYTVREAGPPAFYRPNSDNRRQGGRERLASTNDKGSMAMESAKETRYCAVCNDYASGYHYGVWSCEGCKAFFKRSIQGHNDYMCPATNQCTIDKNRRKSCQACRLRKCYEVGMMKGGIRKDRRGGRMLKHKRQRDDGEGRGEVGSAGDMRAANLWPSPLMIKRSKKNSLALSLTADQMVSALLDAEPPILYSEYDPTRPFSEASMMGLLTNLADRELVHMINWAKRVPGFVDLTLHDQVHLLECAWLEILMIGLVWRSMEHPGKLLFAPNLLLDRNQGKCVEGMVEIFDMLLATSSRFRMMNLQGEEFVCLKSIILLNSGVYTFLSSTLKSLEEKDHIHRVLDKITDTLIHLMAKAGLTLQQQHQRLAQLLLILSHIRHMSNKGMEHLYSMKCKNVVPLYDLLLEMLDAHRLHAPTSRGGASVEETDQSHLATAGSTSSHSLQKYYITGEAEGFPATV

tosylate
in situ aqueous solubility [1]: relatively low

fumarate
in situ aqueous solubility [1]: relatively low

Oc1cccc(-c2ccc3cc(O)ccc3c2Oc2ccc(OCCN3CCCCC3)cc2)c1 [crystalline non-solvated GS II mesylate, 1-(4-(2-piperidinylethoxy)phenoxy)-2-(3-hydroxyphenyl)-6-hydroxynaphthalene, methanesulfonate]
ED50 [2]: 0.22 mg/kg
BMC changes in the vertebrae ([3]; 8 weeks, lumbar vertebra): statistical significance for BMC changes were not achieved
BMD preservation in the vertebrae ([3]; 8 weeks, lumbar vertebra): BMD preservation was also seen
uterine stimulation over OVX control ([3]; 10-mg/kg dose, 8 weeks, in comparison to ovary intact (sham operated) rats): 8.7%
preservation of BMC [3, 8]: significant preservation
preservation of BMD [3, 8]: significant preservation
Changes in uterine wet weight ([3]; oral daily, after 8 weeks of treatment): minimal
Emax [4]: 13.8%
hygroscopicity [5]: non-hygroscopic
% Moisture Adsorbed @80% RH ([5]; 80% RH): <1%
in vivo exposure of GS II (ng hr/ml of GS II and of its conjugates) ([6]; listed as crystalline mesylate salt): largest in vivo exposure
in vivo exposure of GS II (ng hr/ml of GS II and of its conjugates) [6]: significant in vivo exposure
% Volatiles (Thermo Gravimetric Analysis) [7]: <1% (25 to 216° C.)
